Source: paper PMC12235045, “Structural insights into allosteric inhibition of HRI kinase by heme binding via HDX-MS” (Biochemical Journal, 2025)
Like-named read-outs stand apart in the source and are kept apart here.

Experiments:
[1] = molecular target: T1, Heme-regulated inhibitor (HRI) (Homo sapiens, UniProt Q9BQI3); assay: ADP-GLO kinase assay with eIF2α substrate; supported by nanoDSF (+[…] °C at […]) and Phos-tag gels; format: biochemical
T1 construct: gene EIF2AK1; N-terminally His-tagged human HRI, dephosphorylated, from E. coli
T1 sequence (Q9BQI3 whole entry): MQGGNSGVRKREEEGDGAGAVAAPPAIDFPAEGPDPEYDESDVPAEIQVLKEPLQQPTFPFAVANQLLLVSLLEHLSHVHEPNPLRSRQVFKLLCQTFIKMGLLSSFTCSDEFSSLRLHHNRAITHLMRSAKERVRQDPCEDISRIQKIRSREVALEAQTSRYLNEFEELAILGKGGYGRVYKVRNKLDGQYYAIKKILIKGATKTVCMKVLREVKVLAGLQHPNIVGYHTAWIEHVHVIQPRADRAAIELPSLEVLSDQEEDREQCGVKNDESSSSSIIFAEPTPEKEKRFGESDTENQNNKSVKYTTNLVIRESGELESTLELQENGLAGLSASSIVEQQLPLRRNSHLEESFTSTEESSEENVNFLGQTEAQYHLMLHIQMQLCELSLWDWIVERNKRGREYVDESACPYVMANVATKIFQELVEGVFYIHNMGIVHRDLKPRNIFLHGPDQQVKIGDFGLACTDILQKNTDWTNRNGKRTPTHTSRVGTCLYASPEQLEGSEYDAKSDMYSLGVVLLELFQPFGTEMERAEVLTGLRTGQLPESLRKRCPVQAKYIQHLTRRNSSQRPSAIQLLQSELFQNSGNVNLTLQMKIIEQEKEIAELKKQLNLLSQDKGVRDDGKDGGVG

[2] = molecular target: T1, Heme-regulated inhibitor (HRI); assay: as above; format: biochemical; remark: listed apart in the source

IC50 [1] [nM] | IC50 [2] [nM] | SMILES
620 |  | COc1ncc(Cl)cc1S(=O)(=O)Nc1ccc(F)c(C#Cc2cnc(N)nc2)c1F [GCN2iB]
 | 1070 | COC(=O)N[C@@H](C)CNc1nccc(-c2cn(C(C)C)nc2-c2cc(Cl)cc(NS(C)(=O)=O)c2F)n1 [encorafenib]
